Assay results published in ChEMBL document CHEMBL1130446, “The synthesis of CD - ring modified 1,25-dihydroxy vitamin D analogues: Six-membered D-ring analogues II” (Bioorg Med Chem Lett, 1997).

Legend:
[1] = tested on: MG-63; assay: Compound was tested in vitro for its biological evaluation against MG-63 cell line; format: functional, Homo sapiens
[2] = tested on: MCF7; assay: Compound was tested in vitro for its biological evaluation against MCF-7 cell line; format: functional, Homo sapiens
[3] = tested on: HL-60; assay: Compound was tested in vitro for its biological evaluation against HL-60 cell line; format: functional, Homo sapiens
[4] = Ratio of biological evaluation of compound in keratinocytes and calcium sreum was determined. value expressed as relative toxicity.; format: cell-based
[5] = tested on: Keratinocyte; assay: Compound was tested in vitro for its biological evaluation against keratinocytes cell line; format: functional
[6] = molecular target: T1, Vitamin D3 receptor (Sus scrofa domesticus) (UniProt Q7M3G7); assay: Compound was tested for its relative affinity to pig intestinal mucosa Vitamin D3 receptor using [3H]- 1 alpha,25(OH)2 D3 radioligand compared to 1 alpha 25-(OH)2D3; format: tissue-based
T1 sequence (whole entry): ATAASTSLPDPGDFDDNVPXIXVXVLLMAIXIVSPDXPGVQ

[7] = tested on: Mus musculus; assay: In vivo effect in vitamin D-replete normal NMRI mice by measuring calcium levels in serum; format: functional
[8] = Ratio of biological evaluation of compound in keratinocytes and calcium serum was determined. value expressed as relative toxicity.; format: cell-based

Row | SMILES | Activity [1] | Activity [2] | Activity [3] | Ratio [4] | Activity [5] | Relative affinity [6] | Activity [7] | Ratio [8]
1 | C=C1/C(=C\C=C2/CCC[C@]3(C)C([C@H](C)CC#CC(C)(C)O)=CC[C@@H]23)C[C@@H](O)C[C@@H]1O [ILX23-7553] | 1000 | 4250 | 1000 | 1300 | 8000 | 70 | 10 | –
2 | C=C1C(=CC=CC2CCCC([C@@H](C)CC#CC(C)(C)O)C2(C)C)C[C@@H](O)C[C@@H]1O (stereo not given in full) | 20 | 4 | 10 | 28 | 7 | 0.7 | 0.25 | –
3 | C=C1C(=CC=CC2CCCC([C@H](C)CC#CC(C)(C)O)C2(C)C)C[C@@H](O)C[C@@H]1O (stereo not given in full) | – | 100 | 85 | – | 200 | 60 | <0.1 | 2000
